From the supplement of paper PMC10307832

Columns and labels:
Test in all cases: relative viability (nuclei count vs DMSO), 5 days (fraction); higher = more cells survive
Crenolanib + Dasatinib = compound: CC1(COc2ccc3c(c2)ncn3-c2ccc3cccc(N4CCC(N)CC4)c3n2)COC1 [Crenolanib] + Cc1nc(Nc2ncc(C(=O)Nc3c(C)cccc3Cl)s2)cc(N2CCN(CCO)CC2)n1 [Dasatinib] (partner 0.075 µM)
How it was run: (§1)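 Medians of duplicate plates are given as relative viability. That measure is the nuclei count in treated wells divided by the count in vehicle wells. Counts were taken on 4× images of lung cancer cell lines in 1536-well plates, 5 days after pin-tool dosing the day after seeding with one drug alone or a fixed anchor-drug dose plus five library-drug doses (not always all listed) in √10 steps.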

Crenolanib + Luminespib = compound: CC1(COc2ccc3c(c2)ncn3-c2ccc3cccc(N4CCC(N)CC4)c3n2)COC1 [Crenolanib] + CCNC(=O)c1noc(-c2cc(C(C)C)c(O)cc2O)c1-c1ccc(CN2CCOCC2)cc1 [Luminespib] (partner 0.01 µM)
How it was run: as §1

Tivantinib + Tozasertib = compound: O=C1NC(=O)[C@@H](c2cn3c4c(cccc24)CCC3)[C@@H]1c1c[nH]c2ccccc12 [Tivantinib] + Cc1cc(Nc2cc(N3CCN(C)CC3)nc(Sc3ccc(NC(=O)C4CC4)cc3)n2)n[nH]1 [Tozasertib] (partner 0.1 µM)
How it was run: as §1

Crenolanib + Vorinostat = compound: CC1(COc2ccc3c(c2)ncn3-c2ccc3cccc(N4CCC(N)CC4)c3n2)COC1 [Crenolanib] + O=C(CCCCCCC(=O)Nc1ccccc1)NO [Vorinostat] (partner 1 µM)
How it was run: as §1

Cell Line | relative viability (Crenolanib + Dasatinib; first compound 0.01 µM) | relative viability (Crenolanib + Dasatinib; first compound 0.03162 µM) | relative viability (Crenolanib + Dasatinib; first compound 0.1 µM) | relative viability (Crenolanib + Dasatinib; first compound 0.3162 µM) | relative viability (Crenolanib + Dasatinib; first compound 1 µM) | relative viability (Crenolanib + Luminespib; first compound 0.01 µM) | relative viability (Crenolanib + Luminespib; first compound 0.03162 µM) | relative viability (Crenolanib + Luminespib; first compound 0.1 µM) | relative viability (Crenolanib + Luminespib; first compound 0.3162 µM) | relative viability (Crenolanib + Luminespib; first compound 1 µM) | relative viability (Tivantinib + Tozasertib; first compound 0.01 µM) | relative viability (Tivantinib + Tozasertib; first compound 0.03162 µM) | relative viability (Tivantinib + Tozasertib; first compound 0.1 µM) | relative viability (Tivantinib + Tozasertib; first compound 0.3162 µM) | relative viability (Crenolanib + Vorinostat; first compound 0.01 µM) | relative viability (Crenolanib + Vorinostat; first compound 0.03162 µM) | relative viability (Crenolanib + Vorinostat; first compound 0.1 µM) | relative viability (Crenolanib + Vorinostat; first compound 0.3162 µM) | relative viability (Crenolanib + Vorinostat; first compound 1 µM)
NCI-H661 | 0.958 | 0.845 | 0.864 | 0.992 | 1.09 | 0.939 | 0.88 | 0.893 | 0.958 | 0.959 | 0.365 | 0.363 | 0.354 | 0.356 | 0.772 | 0.778 | 0.813 | 0.845 | 0.846
RERF-LC-KJ | 0.81 | 0.961 | 0.933 | 0.956 | 0.733 | 1.31 | 1.28 | 1.04 | 1.31 | 1.18 | 0.539 | 0.532 | 0.473 | 0.403 | 0.759 | 0.707 | 0.664 | 0.689 | 0.711
